Assay: PN002/Part II: safety and tolerability
Format: in vivo
From the text: Clinical safety was monitored throughout the study by adverse events, clinical laboratory tests, vital signs, ECGs, and ECG telemetry.
The subject was not on telemetry at the time.

**Q.** Which results are given for `CC(C)c1ccc(CC(=O)N[C@H](C)c2ccc(OCC(F)(F)F)cn2)cc1` [CX-8998]?
**A.** Abnormal sensation of limbs (12 mg/d): 0 n %; Anger (12 mg/d): 0 n %; Application site erythema (12 mg/d): 1 (16.7) n %; Application site pruritus (12 mg/d): 1 (16.7) n %; At least 1 adverse event (12 mg/d): 6 (100) n %; Backache (12 mg/d): 0 n %; Clamminess (12 mg/d): 0 n %; Daydreaming (12 mg/d): 0 n %; Disorientation (12 mg/d): 0 n %; Dizziness (12 mg/d): 1 (16.7) n %; Drowsiness (12 mg/d): 0 n %; Dyspepsia (12 mg/d): 0 n %; Euphoric mood (12 mg/d): 0 n %; Eye Disorders (12 mg/d): 1 (16.7) n %; Feeling drunk (12 mg/d): 0 n %; Feeling of relaxation (12 mg/d): 2 (33.3) n %; Floating feeling (12 mg/d): 0 n %; Fuzzy head (12 mg/d): 0 n %; Gastrointestinal Disorders (12 mg/d): 1 (16.7) n %; Hallucination (12 mg/d): 0 n %; Headache (12 mg/d): 1 (16.7) n %; Heaviness of head (12 mg/d): 1 (16.7) n %; Hyperactivity (12 mg/d): 1 (16.7) n %; Hypoaesthesia mouth (12 mg/d): 0 n %; Increased state of alertness (12 mg/d): 0 n %; Intermittent headache (12 mg/d): 1 (16.7) n %; Lethargy (12 mg/d): 0 n %; Lightheadedness (12 mg/d): 0 n %; Mood altered (12 mg/d): 1 (16.7) n %; Mood change (12 mg/d): 0 n %; Musculoskeletal and Connective Tissue Disorders (12 mg/d): 1 (16.7) n %; Nausea (12 mg/d): 0 n %; Nervous System Disorders (12 mg/d): 2 (33.3) n %; Paraesthesia generalized (12 mg/d): 0 n %; Paranoia (12 mg/d): 0 n %; Psychiatric Disorders (12 mg/d): 2 (33.3) n %; Respiratory, Thoracic and Mediastinal Disorders (12 mg/d): 0 n %; Sedation (12 mg/d): 0 n %; Sensation of heaviness (12 mg/d): 0 n %; Sensation of pressure (12 mg/d): 0 n %; Skin and Subcutaneous Tissue Disorders (12 mg/d): 1 (16.7) n %; Sleep difficult (12 mg/d): 1 (16.7) n %; Sleep disturbance (12 mg/d): 0 n %; Somnolence (12 mg/d): 0 n %; Sore throat (12 mg/d): 0 n %; Spaced out (12 mg/d): 0 n %; Syncope (12 mg/d): 0 n %; Taste change (12 mg/d): 0 n %; Temporal disorientation (12 mg/d): 0 n %; Tingling (12 mg/d): 0 n %; Tiredness (12 mg/d): 5 (83.3) n %; Visual disturbance (12 mg/d): 0 n %; Vivid dreams (12 mg/d): 0 n %; Vomiting (12 mg/d): 0 n %; Subjects discontinuing treatment because of adverse events (18 mg once daily): 4 of the 6 subjects; Abnormal physical sensation (18 mg/d): 2 (33.3) n %; Abnormal sensation of limbs (18 mg/d): 2 (33.3) n %; Anger (18 mg/d): 2 (33.3) n %; Application site erythema (18 mg/d): 0 n %; Application site pruritus (18 mg/d): 0 n %; At least 1 adverse event (18 mg/d): 6 (100) n %; Backache (18 mg/d): 2 (33.3) n %; Clamminess (18 mg/d): 1 (16.7) n %; Daydreaming (18 mg/d): 2 (33.3) n %; Disorientation (18 mg/d): 1 (16.7) n %; Dizziness (18 mg/d): 2 (33.3) n %; Drowsiness (18 mg/d): 2 (33.3) n %; Dyspepsia (18 mg/d): 0 n %; Euphoric mood (18 mg/d): 1 (16.7) n %; Eye Disorders (18 mg/d): 2 (33.3) n %; Feeling drunk (18 mg/d): 2 (33.3) n %; Feeling of relaxation (18 mg/d): 0 n %; Floating feeling (18 mg/d): 0 n %; Fuzzy head (18 mg/d): 1 (16.7) n %; Gastrointestinal Disorders (18 mg/d): 4 (66.7) n %; Hallucination (18 mg/d): 2 (33.3) n %; Headache (18 mg/d): 4 (66.7) n %; Heaviness of head (18 mg/d): 1 (16.7) n %; Hyperactivity (18 mg/d): 0 n %; Hypoaesthesia mouth (18 mg/d): 2 (33.3) n %; Increased state of alertness (18 mg/d): 0 n %; Intermittent headache (18 mg/d): 0 n %; Lethargy (18 mg/d): 1 (16.7) n %; Lightheadedness (18 mg/d): 1 (16.7) n %; Mood altered (18 mg/d): 0 n %; Mood change (18 mg/d): 0 n %; Musculoskeletal and Connective Tissue Disorders (18 mg/d): 4 (66.7) n %; Nausea (18 mg/d): 2 (33.3) n %; Nervous System Disorders (18 mg/d): 6 (100) n %; Paraesthesia generalized (18 mg/d): 1 (16.7) n %; Paranoia (18 mg/d): 2 (33.3) n %; Psychiatric Disorders (18 mg/d): 6 (100) n %; Respiratory, Thoracic and Mediastinal Disorders (18 mg/d): 1 (16.7) n %; Sedation (18 mg/d): 0 n %; Sensation of heaviness (18 mg/d): 1 (16.7) n %; Sensation of pressure (18 mg/d): 0 n %; Skin and Subcutaneous Tissue Disorders (18 mg/d): 3 (50.0) n %; Sleep difficult (18 mg/d): 1 (16.7) n %; Sleep disturbance (18 mg/d): 1 (16.7) n %; Somnolence (18 mg/d): 0 n %; Sore throat (18 mg/d): 1 (16.7) n %; Spaced out (18 mg/d): 2 (33.3) n %; Syncope (18 mg/d): 1 (16.7) n %; Taste change (18 mg/d): 1 (16.7) n %; Temporal disorientation (18 mg/d): 0 n %; Tingling (18 mg/d): 0 n %; Tiredness (18 mg/d): 2 (33.3) n %; Visual disturbance (18 mg/d): 2 (33.3) n %; Vivid dreams (18 mg/d): 0 n %; Vomiting (18 mg/d): 1 (16.7) n %; Abnormal physical sensation (any dose): 2 (6.7) N (%); Abnormal sensation of limbs (any dose): 2 (6.7) N (%); Anger (any dose): 2 (6.7) N (%); Application site erythema (any dose): 4 (13.3) N (%); Application site pruritus (any dose): 2 (6.7) N (%); At least 1 adverse event (any dose): 27 (90.0) N (%); Backache (any dose): 2 (6.7) N (%); Clamminess (any dose): 2 (6.7) N (%); Daydreaming (any dose): 3 (10.0) N (%); Disorientation (any dose): 2 (6.7) N (%); Dizziness (any dose): 3 (10.0) N (%); Drowsiness (any dose): 5 (15.7) N (%); Dyspepsia (any dose): 2 (6.7) N (%); Euphoric mood (any dose): 4 (13.3) N (%); Eye Disorders (any dose): 6 (20.0) N (%); Feeling drunk (any dose): 2 (6.7) N (%); Feeling of relaxation (any dose): 7 (23.3) N (%); Floating feeling (any dose): 3 (10.0) N (%); Fuzzy head (any dose): 3 (10.0) N (%); Gastrointestinal Disorders (any dose): 11 (36.7) N (%); Hallucination (any dose): 2 (6.7) N (%); Headache (any dose): 14 (46.7) N (%); Heaviness of head (any dose): 2 (6.7) N (%); Hyperactivity (any dose): 3 (10.0) N (%); Hypoaesthesia mouth (any dose): 2 (6.7) N (%); Increased state of alertness (any dose): 2 (6.7) N (%); Intermittent headache (any dose): 3 (10.0) N (%); Lethargy (any dose): 3 (10.0) N (%); Lightheadedness (any dose): 9 (30.0) N (%); Mood altered (any dose): 2 (6.7) N (%); Mood change (any dose): 2 (6.7) N (%); Musculoskeletal and Connective Tissue Disorders (any dose): 8 (26.7) N (%); Nausea (any dose): 5 (16.7) N (%); Nervous System Disorders (any dose): 20 (66.7) N (%); Paraesthesia generalized (any dose): 2 (6.7) N (%); Paranoia (any dose): 2 (6.7) N (%); Psychiatric Disorders (any dose): 15 (50.0) N (%); Respiratory, Thoracic and Mediastinal Disorders (any dose): 5 (16.7) N (%); Sedation (any dose): 2 (6.7) N (%); Sensation of heaviness (any dose): 2 (6.7) N (%); Sensation of pressure (any dose): 2 (6.7) N (%); Skin and Subcutaneous Tissue Disorders (any dose): 6 (20.0) N (%); Sleep difficult (any dose): 2 (6.7) N (%); Sleep disturbance (any dose): 2 (6.7) N (%); Somnolence (any dose): 3 (10.0) N (%); Sore throat (any dose): 3 (10.0) N (%); Spaced out (any dose): 3 (10.0) N (%); Syncope (any dose): 2 (6.7) N (%); Taste change (any dose): 2 (6.7) N (%); Temporal disorientation (any dose): 2 (6.7) N (%); Tingling (any dose): 2 (6.7) N (%); Tiredness (any dose): 13 (43.3) N (%); Visual disturbance (any dose): 4 (13.3) N (%); Vivid dreams (any dose): 4 (13.3) N (%); Vomiting (any dose): 3 (10.0) N (%); Nasal obstruction (male, human, in vivo, 7 days): 2 (6.7) N (%)

From patent US11311522B1 (Cavion, Inc., priority 2018, dated 2022)
